Here are results for 23 compounds from patent US10308639B2, “Phosphatidylinositol 3-kinase inhibitors” (Gilead Sciences, Inc., priority 2014, dated 2019).

As a reminder, the IC50 is the point on the concentration scale where inhibition reaches its midpoint.

What all share (assay type): biochemical
In one assay the target is T1, PI3Kγ (Homo sapiens, UniProt P48736).
T1 construct: made in house
In words: TR-FRET enzymatic activity assay, PI3Kγ. The note with it: read-out: PI3Kγ IC50. In outline: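 Enzymatic activity against the PI3K isoforms was measured using a time-resolved fluorescence resonance energy transfer (TR-FRET) assay.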
(Time-resolved FRET reads energy transfer from a long-lived donor to a nearby acceptor.)

For another assay, the target named is T2, PI3Kβ (Homo sapiens, UniProt P42338).
T2 construct: made in house
T2 sequence (P42338 whole entry): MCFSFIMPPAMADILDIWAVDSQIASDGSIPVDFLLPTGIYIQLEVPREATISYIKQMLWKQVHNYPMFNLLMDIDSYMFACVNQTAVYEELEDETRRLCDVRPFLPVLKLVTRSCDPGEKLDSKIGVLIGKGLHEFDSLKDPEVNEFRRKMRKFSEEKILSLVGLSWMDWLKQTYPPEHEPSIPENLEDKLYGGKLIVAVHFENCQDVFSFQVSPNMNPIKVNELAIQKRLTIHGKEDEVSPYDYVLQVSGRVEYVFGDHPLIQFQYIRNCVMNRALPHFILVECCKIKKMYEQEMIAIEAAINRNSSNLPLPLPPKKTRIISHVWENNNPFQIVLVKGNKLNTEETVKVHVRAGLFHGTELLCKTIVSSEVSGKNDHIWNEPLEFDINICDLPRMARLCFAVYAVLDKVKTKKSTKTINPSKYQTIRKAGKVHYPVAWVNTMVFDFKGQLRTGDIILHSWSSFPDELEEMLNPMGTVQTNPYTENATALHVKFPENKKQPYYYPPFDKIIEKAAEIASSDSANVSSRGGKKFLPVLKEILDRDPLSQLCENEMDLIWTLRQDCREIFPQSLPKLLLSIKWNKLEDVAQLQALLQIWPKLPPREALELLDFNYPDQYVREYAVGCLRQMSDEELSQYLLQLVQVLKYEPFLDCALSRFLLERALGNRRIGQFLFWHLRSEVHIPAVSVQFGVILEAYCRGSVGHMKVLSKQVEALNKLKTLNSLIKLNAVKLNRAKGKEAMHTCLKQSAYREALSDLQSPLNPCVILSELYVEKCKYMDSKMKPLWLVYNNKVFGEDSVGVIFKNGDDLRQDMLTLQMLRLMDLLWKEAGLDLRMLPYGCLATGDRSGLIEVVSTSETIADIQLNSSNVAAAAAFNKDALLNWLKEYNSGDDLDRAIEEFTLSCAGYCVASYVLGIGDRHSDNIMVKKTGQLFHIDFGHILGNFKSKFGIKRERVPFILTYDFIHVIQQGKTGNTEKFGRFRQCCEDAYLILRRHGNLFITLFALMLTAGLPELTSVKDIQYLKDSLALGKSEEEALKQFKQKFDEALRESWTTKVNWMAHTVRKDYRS
T2 sequence (P27986 whole entry partner): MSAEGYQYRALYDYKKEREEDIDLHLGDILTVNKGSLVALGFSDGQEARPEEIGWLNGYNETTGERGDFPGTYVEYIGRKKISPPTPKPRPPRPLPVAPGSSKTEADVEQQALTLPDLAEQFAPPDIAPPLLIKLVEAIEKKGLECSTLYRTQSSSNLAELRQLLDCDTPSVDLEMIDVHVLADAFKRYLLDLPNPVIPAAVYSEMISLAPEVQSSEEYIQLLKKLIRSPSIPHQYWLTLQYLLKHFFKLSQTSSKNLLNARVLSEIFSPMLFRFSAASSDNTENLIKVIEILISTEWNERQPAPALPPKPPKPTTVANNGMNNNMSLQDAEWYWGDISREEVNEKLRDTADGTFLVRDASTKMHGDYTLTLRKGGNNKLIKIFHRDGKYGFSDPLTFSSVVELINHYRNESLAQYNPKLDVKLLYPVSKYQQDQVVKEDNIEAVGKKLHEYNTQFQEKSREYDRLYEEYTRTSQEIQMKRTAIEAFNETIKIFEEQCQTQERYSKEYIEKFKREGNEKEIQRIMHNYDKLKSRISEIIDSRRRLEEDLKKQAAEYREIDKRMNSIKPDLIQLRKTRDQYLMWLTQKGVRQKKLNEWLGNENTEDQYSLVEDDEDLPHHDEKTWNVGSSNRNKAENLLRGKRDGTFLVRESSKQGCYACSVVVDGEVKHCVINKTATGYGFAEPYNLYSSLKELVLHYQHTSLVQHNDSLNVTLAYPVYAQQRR
In words: TR-FRET enzymatic activity assay, PI3Kβ.

The next assay has as its target T3, PI3Kδ (Homo sapiens, UniProt O00329).
T3 construct: made in house
In words: TR-FRET enzymatic activity assay, PI3Kδ.

[1] abbreviates: Table 2, TR-FRET, 2x Km ATP, 30 minutes at 25° C.

Molecules are shown by their SMILES. Like-named read-outs stand apart in the source and are kept apart here.

T1 sequence (P48736 whole entry): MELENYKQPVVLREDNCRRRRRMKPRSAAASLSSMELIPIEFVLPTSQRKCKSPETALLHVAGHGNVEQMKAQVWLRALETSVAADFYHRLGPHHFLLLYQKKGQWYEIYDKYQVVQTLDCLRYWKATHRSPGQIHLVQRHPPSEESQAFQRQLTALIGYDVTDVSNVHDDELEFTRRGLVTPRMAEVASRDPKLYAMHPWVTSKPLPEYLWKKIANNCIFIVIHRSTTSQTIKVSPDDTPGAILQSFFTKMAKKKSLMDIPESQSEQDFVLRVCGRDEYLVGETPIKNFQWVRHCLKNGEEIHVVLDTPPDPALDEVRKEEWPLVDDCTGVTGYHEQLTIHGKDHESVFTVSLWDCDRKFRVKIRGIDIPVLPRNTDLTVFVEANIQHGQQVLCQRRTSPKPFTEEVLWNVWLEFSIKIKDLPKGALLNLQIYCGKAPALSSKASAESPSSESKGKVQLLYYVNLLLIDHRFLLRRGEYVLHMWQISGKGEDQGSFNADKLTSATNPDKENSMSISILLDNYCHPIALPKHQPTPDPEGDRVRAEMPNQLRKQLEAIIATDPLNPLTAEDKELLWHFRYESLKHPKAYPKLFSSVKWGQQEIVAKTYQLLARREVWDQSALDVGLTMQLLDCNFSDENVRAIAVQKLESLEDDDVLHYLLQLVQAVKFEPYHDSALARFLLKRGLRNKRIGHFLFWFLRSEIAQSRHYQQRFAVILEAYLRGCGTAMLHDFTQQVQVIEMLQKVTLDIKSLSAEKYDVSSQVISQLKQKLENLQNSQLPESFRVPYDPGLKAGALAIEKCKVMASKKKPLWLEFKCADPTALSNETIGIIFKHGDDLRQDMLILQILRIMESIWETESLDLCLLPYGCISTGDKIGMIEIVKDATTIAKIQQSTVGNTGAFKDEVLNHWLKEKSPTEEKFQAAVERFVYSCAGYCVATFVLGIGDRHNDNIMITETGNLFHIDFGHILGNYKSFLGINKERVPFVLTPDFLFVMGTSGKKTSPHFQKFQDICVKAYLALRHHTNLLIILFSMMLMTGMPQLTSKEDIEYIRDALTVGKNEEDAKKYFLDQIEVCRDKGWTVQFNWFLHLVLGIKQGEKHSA
T3 sequence (O00329 whole entry): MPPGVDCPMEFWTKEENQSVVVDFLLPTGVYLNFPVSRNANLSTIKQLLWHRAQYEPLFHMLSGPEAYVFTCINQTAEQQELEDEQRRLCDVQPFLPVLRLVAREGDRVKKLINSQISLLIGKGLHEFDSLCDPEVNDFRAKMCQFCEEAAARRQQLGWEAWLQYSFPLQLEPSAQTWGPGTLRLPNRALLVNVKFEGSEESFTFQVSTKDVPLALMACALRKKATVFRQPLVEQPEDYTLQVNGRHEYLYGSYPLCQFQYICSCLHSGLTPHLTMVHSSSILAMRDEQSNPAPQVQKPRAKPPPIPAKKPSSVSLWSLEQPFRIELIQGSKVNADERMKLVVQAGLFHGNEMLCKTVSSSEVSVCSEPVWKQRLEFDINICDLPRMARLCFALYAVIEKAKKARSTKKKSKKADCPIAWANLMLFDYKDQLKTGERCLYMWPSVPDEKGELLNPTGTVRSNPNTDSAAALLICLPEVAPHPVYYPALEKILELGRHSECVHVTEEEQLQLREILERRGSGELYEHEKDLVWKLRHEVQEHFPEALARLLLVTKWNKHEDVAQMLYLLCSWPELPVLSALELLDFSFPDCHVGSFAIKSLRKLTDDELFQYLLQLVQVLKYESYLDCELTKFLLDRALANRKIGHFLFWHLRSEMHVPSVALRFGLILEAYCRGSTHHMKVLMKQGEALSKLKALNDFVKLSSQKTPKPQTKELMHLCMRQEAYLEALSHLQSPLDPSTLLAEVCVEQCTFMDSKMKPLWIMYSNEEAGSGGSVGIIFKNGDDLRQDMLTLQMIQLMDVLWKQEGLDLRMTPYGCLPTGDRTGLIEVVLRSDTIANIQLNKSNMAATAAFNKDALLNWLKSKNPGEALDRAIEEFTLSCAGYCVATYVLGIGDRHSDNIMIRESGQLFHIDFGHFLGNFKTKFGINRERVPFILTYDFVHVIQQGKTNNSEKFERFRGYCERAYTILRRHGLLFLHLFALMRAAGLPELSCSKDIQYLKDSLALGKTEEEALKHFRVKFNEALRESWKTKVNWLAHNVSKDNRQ
T3 sequence (P27986 whole entry partner): as the sequence (P27986 whole entry partner) above

On to `CC[C@H](Nc1nc(N)nc(N)c1Cl)c1nc2c(F)ccc(Cl)c2c(=O)n1-c1cc[nH]n1` [Compound 68, (S)-5-chloro-2-(1-((2,6-diamino-5-chloropyrimidin-4-yl)amino)propyl)-8-fluoro-3-(1H-pyrazol-3-yl)quinazolin-4(3H)-one], for which the IC50 at PI3Kγ is greater than 10000 nM; on PI3Kβ (setting [1]), 44 nM; against PI3Kδ (setting [1]), 20 nM.
Consider `Nc1nc(N)c(Cl)c(N[C@H](c2nc3c(Cl)cc(F)cc3c(=O)n2-c2c[nH]cn2)C2CC2)n1` [Compound 280, (S)-8-chloro-2-(cyclopropyl((2,6-diamino-5-chloropyrimidin-4-yl)amino)methyl)-6-fluoro-3-(1H-imidazol-4-yl)quinazolin-4(3H)-one], for which the IC50 was greater than 10000 nM on PI3Kγ (Table 2a, same assay); 370 nM against PI3Kβ (Table 2a, same assay); 48 nM against PI3Kδ (Table 2a, same assay).
Take `N#Cc1c(N)nc(N)nc1N[C@@H](c1ccccc1)c1nc2cccc(Cl)c2c(=O)n1-c1cn[nH]c1` [Compound 106, (S)-2,4-diamino-6-(((5-chloro-4-oxo-3-(1H-pyrazol-4-yl)-3,4-dihydroquinazolin-2-yl)(phenyl)methyl)amino)pyrimidine-5-carbonitrile]: the IC50 on PI3Kγ (setting [1]) amounted to 210 nM; at PI3Kβ (setting [1]) it was 4 nM; against PI3Kδ (setting [1]) it was 2 nM.
For `Nc1nc(N)c(Cl)c(N[C@@H](c2ccccc2)c2nc3cccc(Cl)c3c(=O)n2-c2cn[nH]c2)n1` [Compound 107, (S)-5-chloro-2-(((2,6-diamino-5-chloropyrimidin-4-yl)amino)(phenyl)methyl)-3-(1H-pyrazol-4-yl)quinazolin-4(3h)-one] the same measures were 2400 nM, 49 nM and 11 nM.
For `N#Cc1c(N)nc(N)nc1N[C@H](c1nc2c(Cl)cccc2c(=O)n1-c1cc[nH]n1)C1CC1` [Compound 30, (S)-2,4-diamino-6-(((8-chloro-4-oxo-3-(1H-pyrazol-3-yl)-3,4-dihydroquinazolin-2-yl)(cyclopropyl)methyl)amino)pyrimidine-5-carbonitrile] the same measures were 1300 nM, 2 nM and 3 nM.
Take `Cc1c[nH]nc1-n1c([C@@H](Nc2nc(N)nc(N)c2C#N)C2CC2)nc2c(C#N)cccc2c1=O` [Compound 241, (S)-2-(cyclopropyl((2,6-diamino-5-cyanopyrimidin-4-yl)amino)methyl)-3-(4-methyl-1H-pyrazol-3-yl)-4-oxo-3,4-dihydroquinazoline-8-carbonitrile]: the IC50 at PI3Kγ (Table 2a, same assay) is greater than 10000 nM; at PI3Kβ (Table 2a, same assay), 93 nM; on PI3Kδ (Table 2a, same assay) it was 7 nM.
In the same order, the values of `N#Cc1c(N[C@H](c2nc3c(Cl)cc(F)cc3c(=O)n2-c2cn[nH]c2)C2CC2)nc(N)nc1C(F)F` [Compound 184, (S)-2-amino-4-(((8-chloro-6-fluoro-4-oxo 3-(1H-pyrazol-4-yl)-3,4-dihydroquinazolin-2-yl)(cyclopropyl)methyl)amino)-6-(difluoromethyl)pyrimidine-5-carbonitrile] are 1500 nM, 8 nM and 9 nM.
For `C[C@H](Nc1nc(N)nc(N)c1C#N)c1nc2cc(F)cc(F)c2c(=O)n1-c1cc[nH]n1` [Compound 235, (S)-2,4-diamino-6-((1-(5,7-difluoro-4-oxo-3-(1H-pyrazol-3-yl)-3,4-dihydroquinazolin-2-yl)ethyl)amino)pyrimidine-5-carbonitrile] the same measures were 9600 nM, 11 nM and 12 nM.
In the same order, the values of `C[C@H](Nc1nc(N)nc(N)c1C#N)c1nc2ccc(Cl)c(C(F)F)c2c(=O)n1-c1cc[nH]n1` [Compound 230, (S)-2,4-diamino-6-((1-(6-chloro-5-(difluoromethyl)-4-oxo-3-(1H-pyrazol-3-yl)-3,4-dihydroquinazolin-2-yl)ethyl)amino)pyrimidine-5-carbonitrile] are 1800 nM, 7 nM and 6 nM.
On to `C[C@H](Nc1ncnc2ccoc12)c1nc2cccc(Cl)c2c(=O)n1-c1cc[nH]n1` [Compound 61, (S)-5-chloro-2-(1-(furo[3,2-d]pyrimidin-4-ylamino)ethyl)-3-(1H-pyrazol-3-yl)quinazolin-4(3H)-one], for which the results for the IC50 on PI3Kγ (setting [1]), on PI3Kβ (setting [1]) and on PI3Kδ (setting [1]) were 8100 nM, 20 nM and 3 nM, respectively.
Turning to `C[C@H](Nc1nc(N)nc(N)c1Cl)c1nc2ccc(Cl)c(C(F)F)c2c(=O)n1-c1cc[nH]n1` [Compound 229, (S)-6-chloro-2-(1-((2,6-diamino-5-chloropyrimidin-4-yl)amino)ethyl)-5-(difluoromethyl)-3-(1H-pyrazol-3-yl)quinazolin-4(3H)-one], the IC50 at PI3Kγ (Table 2a, same assay) is 5000 nM; against PI3Kβ (Table 2a, same assay), 85 nM; against PI3Kδ (Table 2a, same assay) it was 49 nM.
Consider `CC[C@H](Nc1nc(F)nc2[nH]cnc12)c1nc2c(Cl)ccc(Cl)c2c(=O)n1-c1cc[nH]n1` [Compound 53, (S)-5,8-dichloro-2-(1-((2-fluoro-9H-purin-6-yl)amino)propyl)-3-(1H-pyrazol-3-yl)quinazolin-4(3H)-one], for which the IC50 on PI3Kγ is greater than 10000 nM; on PI3Kβ (setting [1]), 76 nM; against PI3Kδ (setting [1]), 13 nM.
Turning to `Cc1n[nH]cc1-n1c([C@@H](Nc2nc(N)nc(N)c2Cl)C2CC2)nc2c(Cl)cc(F)cc2c1=O` [Compound 221, (S)-8-chloro-2-(cyclopropyl((2,6-diamino-5-chloropyrimidin-4-yl)amino)methyl)-6-fluoro-3-(3-methyl-1H-pyrazol-4-yl)quinazolin-4(3H)-one], the IC50 at PI3Kγ (Table 2a, same assay) is greater than 10000 nM; on PI3Kβ (Table 2a, same assay), 1100 nM; at PI3Kδ (Table 2a, same assay), 180 nM.
`CC[C@H](Nc1ncnc2[nH]cnc12)c1nc2c(Cl)ccc(Cl)c2c(=O)n1-c1cc[nH]n1` [Compound 52, (S)-2-(1-((9H-purin-6-yl)amino)propyl)-5,8-dichloro-3-(1H-pyrazol-3-yl)quinazolin-4(3H)-one]: the IC50 on PI3Kγ was greater than 10000 nM; against PI3Kβ (setting [1]) it was 70 nM; on PI3Kδ (setting [1]), 6 nM.
For `Nc1nc(N)c(Cl)c(N[C@H](c2nc3cccc(C(F)(F)F)c3c(=O)n2-c2cc[nH]n2)C2CC2)n1` [Compound 210, (S)-2-(cyclopropyl((2,6-diamino-5-chloropyrimidin-4-yl)amino)methyl)-3-(1H-pyrazol-3-yl)-5-(trifluoromethyl)quinazolin-4(3H)-one], the IC50 at PI3Kγ (Table 2a, same assay) amounted to 6600 nM; against PI3Kβ (Table 2a, same assay) it was 37 nM; on PI3Kδ (Table 2a, same assay), 19 nM.
Consider `C[C@H](Nc1ncnc(N)c1C#Cc1ccc(F)cn1)c1nc2cccc(Cl)c2c(=O)n1-c1cc[nH]n1` [Compound 72, (S)-2-(1-((6-amino-5-((5-fluoropyridin-2-yl)ethynyl)pyrimidin-4-yl)amino)ethyl)-5-chloro-3-(1H-pyrazol-3-yl)quinazolin-4(3H)-one], for which the IC50 on PI3Kγ (setting [1]) was determined as 4000 nM; against PI3Kβ (setting [1]), 4 nM; against PI3Kδ (setting [1]) it was 0.5 nM.
For `Cc1n[nH]cc1-n1c([C@H](C)Nc2nc(N)nc(N)c2Cl)nc2c(Cl)ccc(Cl)c2c1=O` [Compound 218, (S)-5,8-dichloro-2-(1-((2,6-diamino-5-chloropyrimidin-4-yl)amino)ethyl)-3-(3-methyl-1H-pyrazol-4-yl)quinazolin-4(3H)-one], the IC50 is greater than 10000 nM at PI3Kγ (Table 2a, same assay); 210 nM at PI3Kβ (Table 2a, same assay); 20 nM against PI3Kδ (Table 2a, same assay).
With `C[C@H](Nc1nc(N)nc(C(F)F)c1C#N)c1nc2c(F)ccc(Cl)c2c(=O)n1-c1cc[nH]n1` [Compound 185, (S)-2-amino-4-((1-(5-chloro-8-fluoro-4-oxo-3-(1H-pyrazol-3-yl)-3,4-dihydroquinazolin-2-yl)ethyl)amino)-6-(difluoromethyl)pyrimidine-5-carbonitrile], the IC50 worked out at 1300 nM on PI3Kγ (Table 2a, same assay); 6 nM at PI3Kβ (Table 2a, same assay); 4 nM at PI3Kδ (Table 2a, same assay).
With `C[C@H](Nc1nc(N)nc(C(F)F)c1Cl)c1nc2c(Cl)cc(F)cc2c(=O)n1-c1cc[nH]n1` [Compound 226, (S)-2-(1-((2-amino-5-chloro-6-(difluoromethyl)pyrimidin-4-yl)amino)ethyl)-8-chloro-6-fluoro-3-(1H-pyrazol-3-yl)quinazolin-4(3H)-one], the IC50 on PI3Kγ (Table 2a, same assay) was greater than 10000 nM; at PI3Kβ (Table 2a, same assay), 628 nM; against PI3Kδ (Table 2a, same assay) it was 270 nM.
Turning to `CC[C@H](Nc1ncnc2ccc(Cl)nc12)c1nc2c(Cl)ccc(Cl)c2c(=O)n1-c1cn[nH]c1` [Compound 42, (S)-5,8-dichloro-2-(1-((6-chloropyrido[3,2-d]pyrimidin-4-yl)amino)propyl)-3-(1H-pyrazol-4-yl)quinazolin-4(3H)-one], the values for the IC50 at PI3Kγ (setting [1]), against PI3Kβ (setting [1]) and on PI3Kδ (setting [1]) were 460 nM, 77 nM and 10 nM, respectively.
As for `N#Cc1c(N)nc(N)nc1N[C@H](c1nc2cccc(Cl)c2c(=O)n1-c1cn[nH]c1)C1CC1` [Compound 17, (S)-2,4-diamino-6-(((5-chloro-4-oxo-3-(1H-pyrazol-4-yl)-3,4-dihydroquinazolin-2-yl)(cyclopropyl)methyl)amino)pyrimidine-5-carbonitrile], the results for the IC50 on PI3Kγ (setting [1]), at PI3Kβ (setting [1]) and against PI3Kδ (setting [1]) were 67 nM, 2 nM and 0.6 nM, respectively.
Take `CC[C@H](Nc1ncnc2ccc(Cl)nc12)c1nc2c(Cl)ccc(Cl)c2c(=O)n1-c1cc[nH]n1` [Compound 45, (S)-5,8-dichloro-2-(1-((6-chloropyrido[3,2-d]pyrimidin-4-yl)amino)propyl)-3-(1H-pyrazol-3-yl)quinazolin-4(3H)-one]: the results for the IC50 at PI3Kγ, against PI3Kβ (setting [1]) and against PI3Kδ (setting [1]) were greater than 10000 nM, 15 nM and 4 nM, respectively.
As for `C[C@H](Nc1ncnc2scnc12)c1nc2cccc(Cl)c2c(=O)n1-c1ccc[nH]1` [Compound 290, (S)-5-chloro-3-(1H-pyrrol-2-yl)-2-(1-(thiazolo[5,4-d]pyrimidin-7-ylamino)ethyl)quinazolin-4(3H)-one], the IC50 was 72 nM at PI3Kγ (Table 2a, same assay); 69 nM on PI3Kβ (Table 2a, same assay); 0.5 nM against PI3Kδ (Table 2a, same assay).
